Measured values: article PMC10840477 (Acta Pharmaceutica Sinica. B, 2023)

Tests used:
P2Y12 = P2Y12 (Homo sapiens, UniProt Q9H244); assay: P2Y12 β-Arrestin recruitment assay; assay type: cell-based; details: at similar concentrations as TP1; antagonist mode, n = 2
ICR mice [1] = assay: In vivo acute pulmonary thrombosis; design: species or system mouse; details: three days, positive control
ICR mice [2] = assay: Tail suspension test; assay type: in vivo, mouse; details: p.o. 20 mg/kg, positive control, final 4 min of 6 min test
ICR mice [3] = assay: Forced swimming test; assay type: in vivo, mouse; details: p.o. 20 mg/kg, positive control, final 4 min of 6 min test

Sequence of P2Y12 (Q9H244 whole entry): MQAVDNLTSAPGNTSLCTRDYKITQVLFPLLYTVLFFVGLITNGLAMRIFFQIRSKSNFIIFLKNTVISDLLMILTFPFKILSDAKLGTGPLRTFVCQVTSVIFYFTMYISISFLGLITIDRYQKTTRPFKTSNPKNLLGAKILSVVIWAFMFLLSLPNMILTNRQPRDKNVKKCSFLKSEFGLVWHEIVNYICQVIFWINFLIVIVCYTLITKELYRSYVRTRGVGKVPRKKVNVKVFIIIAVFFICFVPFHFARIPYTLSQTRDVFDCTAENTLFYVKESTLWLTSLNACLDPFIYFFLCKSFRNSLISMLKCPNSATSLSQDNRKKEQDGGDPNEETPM

CC(C)=CCC[C@](C)(O[C@@H]1O[C@H](CO[C@@H]2O[C@H](CO)[C@@H](O)[C@H](O)[C@H]2O)[C@@H](O)[C@H](O)[C@H]1O)[C@H]1CC[C@]2(C)[C@@H]1[C@H](O)C[C@@H]1[C@@]3(C)CC[C@H](O[C@@H]4O[C@H](CO)[C@@H](O)[C@H](O)[C@H]4O[C@@H]4O[C@H](CO)[C@@H](O)[C@H](O)[C@H]4O)C(C)(C)[C@@H]3CC[C@]12C [ginsenoside Rb1]
Inhibitory effects against P2Y12 activation (P2Y12): did not display inhibitory effects

COC(=O)[C@H](c1ccccc1Cl)N1CCc2sccc2C1 [clopidogrel]
Thrombus formation in the lung, effect relative to ginsentide TP1 (ICR mice [1]; oral clopidogrel 50 mg/kg): comparable

CNCCC(Oc1ccc(C(F)(F)F)cc1)c1ccccc1 (stereo not drawn) [fluoxetine]
Decrease of immobility time, tail suspension test (ICR mice [2]): 30.01 ± 7.22 s
Decrease of immobility time, forced swimming test (ICR mice [3]): 42.52 ± 9.96 s

CC(=O)Oc1ccccc1C(=O)O [aspirin]
Thrombus formation in the lung, effect relative to ginsentide TP1 (ICR mice [1]; oral aspirin 100 mg/kg): comparable

CC(C)=CCC[C@](C)(O[C@@H]1O[C@H](CO)[C@@H](O)[C@H](O)[C@H]1O)[C@H]1CC[C@]2(C)[C@@H]1[C@H](O)C[C@@H]1[C@@]3(C)CC[C@H](O)C(C)(C)[C@@H]3[C@@H](O[C@@H]3O[C@H](CO)[C@@H](O)[C@H](O)[C@H]3O)C[C@]12C [ginsenoside Rg1]
Inhibitory effects against P2Y12 activation (P2Y12): did not display inhibitory effects
